What was measured:
Assay type in all cases: cell-based, human
HCT-116 cells = assay: SRB cytotoxicity assay, HCT-116; details: SRB assay, 72 h exposure, ± SEM
Experimental: Compounds in this study were tested against colorectal cancer cell line HCT-116, using sulforhodamine-B (SRB) assay. See Skehan, P.; Storeng, R.; Scudiero, D.; Monks, A.; McMahon, J.; Vistica, D.; Warren, J. T.; Bokesch, H.; Kenney, S.; Boyd, M. R., New colorimetric cytotoxicity assay for anticancer-drug screening. J Natl Cancer Inst 1990, 82 (13), 1107-12, incorporated herein by reference in its entirety. […] However, it was clear that compounds bearing hydrophobic aliphatic groups such as MOS-1505 and MOS-1512 are clearly favored in providing anticancer activities. […] The N-aryl substituents were less advantageous in both potency and solubility.
(§1) Different cell lines were originally purchased from American type culture collection (ATCC, Wesel, Germany) and grown in the tissue culture lab of the Egyptian company for production of vaccines, sera and drugs (Vacsera, Giza, Egypt). The cells were transferred to our laboratory and maintained in the appropriate media as following. HCT-116, CACO-2, and HT-29 (human colon cancer cell lines) were maintained in Roswell Park Memorial Institute medium (RPMI1640) (Invitrogen, Carlsbad, Calif.). The mouse skin fibroblasts (C-166) and Baby Hamster Kidney fibroblasts (BHK) were grown in Dulbecco Modified Eagle's medium (DMEM). Both media were supplemented with 1% of […] of streptomycin, 100 units/mL of penicillin and 10% of heat-inactivated fetal bovine serum (Invitrogen, Carlsbad, Calif.) in a humidified, 5% (v/v) CO2 atmosphere at 37° C.
(§2) The sulforhodamine B (SRB) assays were performed according to Skehan, P.; Storeng, R.; Scudiero, D.; Monks, A.; McMahon, J.; Vistica, D.; Warren, J. T.; Bokesch, H.; Kenney, S.; Boyd, M. R., New colorimetric cytotoxicity assay for anticancer-drug screening. J Natl Cancer Inst 1990, 82 (13), 1107-12, incorporated herein by reference in its entirety. Briefly, exponentially growing cells were trypsinized, counted and seeded at the appropriate densities (5000 cells/100 μL/well) into 96-well microtiter plates. Cells were incubated in a humidified atmosphere at 37° C. for 24 h. Then, the cells were exposed to different compounds at the desired concentrations, (0.01, 0.1, 1, 10, and 100 μM) or to 1% dimethyl sulfoxide (DMSO) for 72 h. At the end of the treatment period, the media were removed, and the cells were fixed with 10% trichloroacetic acid at 4° C. for 1 hr. Following, the cells were washed with tap water four times and incubated with SRB 0.4% for 30 min. Excess dye was removed by washing repeatedly with 1% (vol/vol) acetic acid. The protein-bound dye was dissolved in 10 mM Tris base solution for (optical density) OD determination at 510 nm using a SpectraMax plus Microplate Reader (Molecular Devices, CA). Cell viability was expressed relative to the untreated control cells.

CACO-2 cells = assay: SRB cytotoxicity assay, CACO-2; details: ± SEM
Description: (§3) Based on the favorable pharmacologic and physicochemical properties of MOS-1512, it was selected as a new lead for the second subset of compounds (MOS-1812 to MOS-5112). The compounds in this series contained variable groups at R^1 and R^2 that were all tested against the three cancer cell lines (HCT-116, Caco-2 and HT-29).
as §1, §2

HT-29 cells = assay: SRB cytotoxicity assay, HT-29; details: 72 h exposure, ± SEM
Description: as §3, §1, §2

[1] = Homo sapiens, Caco-2, 72 h exposure

Row | SMILES | IC50 (HCT-116 cells; Homo sapiens, HCT-116) | IC50 (CACO-2 cells; [1]) | IC50 (HT-29 cells; Homo sapiens, HT-29, monolayer) | IC50 (HCT-116 cells) | IC50 (CACO-2 cells; 72 h exposure) | IC50 (HT-29 cells; monolayer)
1 | NC(=O)/C(=C/c1ccccc1)NC(=O)/C=C/c1ccccc1 [Compound 1508, N—[(Z)-3-amino-3-oxo-1-phenylprop-1-en-2-yl]-(E)-cinnamamide] | > 100 µM |  |  |  |  | 
2 | CN1CCN(NC(=O)/C(=C/c2ccccc2)NC(=O)/C=C/c2ccccc2)CC1 [Compound 1511, (Z)-2-[(E)-cinnamamido]-N-(4-methyl-1-piperazinyl)-3-phenyl-acrylamide] | > 100 µM |  |  |  |  | 
3 | N#Cc1cccc(NC(=O)/C(=C/c2ccccc2)NC(=O)/C=C/c2ccccc2)c1 [Compound 1513, (Z)-2-[(E)-cinnamamido]-N-(3-cyanophenyl)-3-phenyl-acrylamide] | > 100 µM |  |  |  |  | 
4 | O=C(/C=C/c1ccccc1)N/C(=C\c1ccccc1)C(=O)Nc1ccc(F)cc1 [Compound 1528, (Z)-2-[(E)-cinnamamido]-N-(4-fluorophenyl)-3-phenylacrylamide] | 91.9 ± 4.4 µM |  |  |  |  | 
5 | O=C(/C=C/c1ccccc1)N/C(=C\c1ccccc1)C(=O)NCc1ccco1 [Compound 1530, (Z)-2-[(E)-cinnamamido]-N-(2-furylmethyl)-3-phenyl-acrylamide] | > 100 µM |  |  |  |  | 
6 | O=C(/C=C/c1ccccc1)N/C(=C\c1ccccc1)C(=O)NCCN1CCOCC1 [Compound 1531, (Z)-2-[(E)-cinnamamido]-N-(2-morpholinoethyl)-3-phenyl-acrylamide] | > 100 µM |  |  |  |  | 
7 | O=C(C=Cc1ccccc1)N/C(=C\c1ccccc1)C(=O)N1CCOCC1 [Compound 1536, N—[(Z)-3-morpholino-3-oxo-1-phenylprop-1-en-2-yl]cinnamamide] | > 100 µM |  |  |  |  | 
8 | O=C(C=Cc1ccccc1)N/C(=C\c1ccccc1)C(=O)N1CCCC1 [Compound 1555, N—[(Z)-3-(1-pyrrolidinyl)-3-oxo-1-phenylprop-1-en-2-yl]cinnamamide] | > 100 µM |  |  |  |  | 
9 | CCCCNC(=O)/C(=C/c1ccccc1)NC(=O)/C=C/c1ccccc1 [Compound 1556, (Z)—N-(n-butyl)-2-[(E)-cinnamamido]-3-phenylacrylamide] | 67.2 ± 6.3 µM |  |  |  |  | 
10 | CCC(C)NC(=O)/C(=C/c1ccccc1)NC(=O)C=Cc1ccccc1 (stereo not shown) [Compound 1557, (Z)—N-(sec-butyl)-2-cinnamamido-3-phenylacrylamide] | 52.4 ± 7.1 µM |  |  |  |  | 
11 | CCNC(=O)/C(=C/c1ccccc1)NC(=O)/C=C/c1ccccc1 [Compound 1558, (Z)-2-[(E)-cinnamamido]-N-ethyl-3-phenylacrylamide] | > 100 µM |  |  |  |  | 
12 | CCN(C)C(=O)/C(=C/c1ccccc1)NC(=O)C=Cc1ccccc1 [Compound 1559, (Z)-2-cinnamamido-N-ethyl-N-methyl-3-phenylacrylamide] | 28.8 ± 1 µM |  |  |  |  | 
13 | CCCNC(=O)/C(=C/c1ccccc1)NC(=O)/C=C/c1ccc(Cl)cc1 [Compound 1812, (Z)-2-[(E)-3-(4-chlorophenyl)acrylamido]-3-phenyl-N-propylacrylamide] | 10.3 ± 0.34 µM | 10.7 ± 0.5 µM | 7.9 ± 0.43 µM |  |  | 
14 | CCCNC(=O)/C(=C/c1ccccc1)NC(=O)/C=C/c1ccc(OC)cc1 [Compound 1912, (Z)-2-[(E)-3-(4-methoxyphenyl)acrylamido]-3-phenyl-N-propylacrylamide] | 34.1 ± 1.8 µM | 18.5 ± 1.5 µM | 55.3 ± 3.2 µM |  |  | 
15 | CCCNC(=O)/C(=C/c1ccccc1)NC(=O)/C=C/c1ccc(C)cc1 [Compound 2012, (Z)-3-phenyl-N-propyl-2-[(E)-3-(p-tolyl)acrylamidolacry]amide] |  |  |  | 35.2 ± 0.54 µM | 12.7 ± 0.67 µM | 54.1 ± 0.42 µM
16 | CCCNC(=O)/C(=C/c1ccccc1)NC(=O)/C=C/c1cccs1 [Compound 2112, (Z)-3-phenyl-N-propyl-2-[(E)-3-(thien-2-yl)acrylamidolacry]amide] |  |  |  | 43 ± 1.5 µM | 27.8 ± 1.3 µM | 43.2 ± 2.3 µM

Row | SMILES | IC50 (HCT-116 cells; Homo sapiens, HCT-116) | IC50 (CACO-2 cells; [1]) | IC50 (HT-29 cells; Homo sapiens, HT-29, monolayer) | IC50 (HCT-116 cells) | IC50 (CACO-2 cells; 72 h exposure) | IC50 (HT-29 cells; monolayer)
17 | CCCNC(=O)/C(=C/c1ccc(F)cc1)NC(=O)C=Cc1ccccc1 [Compound 2212, (Z)-2-cinnamamido-3-(4-fluorophenyl)-N-propylacrylamide] | 15.2 ± 1.2 µM | 13.2 ± 1 µM | 7.2 ± 0.31 µM |  |  | 
18 | CCCNC(=O)/C(=C/c1ccc(F)cc1)NC(=O)/C=C/c1ccc(OC)cc1 [Compound 2412, (Z)-3-(4-fluorophenyl)-2-[(E)-3-(4-methoxyphenyl)acrylamido]-N-propylacrylamide] | 29.3 ± 1.2 µM | 45.7 ± 1.2 µM | 86.5 ± 2.9 µM |  |  | 
19 | CCCNC(=O)/C(=C/c1ccc(F)cc1)NC(=O)/C=C/c1ccc(C)cc1 [Compound 2512, (Z)-3-(4-fluorophenyl)-N-propyl-2-[(E)-3-(p-tolyl)acrylamidolacry]amide] |  |  |  | 6.7 ± 0.36 µM | 5.1 ± 0.17 µM | 11.8 ± 0.18 µM
20 | CCCNC(=O)/C(=C/c1ccc(F)cc1)NC(=O)/C=C/c1cccs1 [Compound 2612, (Z)-3-(4-fluorophenyl)-N-propyl-2-[(E)-3-(thien-2-yl)acrylamidolacry]amide] |  |  |  | 17.3 ± 0.13 µM | 10.7 ± 0.68 µM | 7.68 ± 0.05 µM
21 | CCCNC(=O)/C(=C/c1ccc(N(C)C)cc1)NC(=O)C=Cc1ccccc1 [Compound 2712, (Z)-2-cinnamamido-3-[4-(dimethylamino)phenyl]-N-propylacrylamide] | 6.95 ± 0.46 µM | 4.24 ± 0.09 µM | 6.8 ± 0.05 µM |  |  | 
22 | CCCNC(=O)/C(=C/c1ccc(N(C)C)cc1)NC(=O)/C=C/c1ccc(OC)cc1 [Compound 2912, (Z)-3-[4-(dimethylamino)phenyl]-2-[(E)-3-(4-methoxyphenyl)acrylamido]-N-propylacrylamide] | 12.4 ± 0.25 µM | 15.3 ± 0.05 µM | 36.9 ± 0.25 µM |  |  | 
23 | CCCNC(=O)/C(=C/c1ccc(N(C)C)cc1)NC(=O)/C=C/c1ccc(C)cc1 [Compound 3012, (Z)-3-[4-(dimethylamino)phenyl]-N-propyl-2-[(E)-3-(p-tolyl)acrylamidolacry]amide] |  |  |  | 22.1 ± 0.1 µM | 29.4 ± 0.08 µM | 39.6 ± 0.22 µM
24 | CCCNC(=O)/C(=C/c1ccc(N(C)C)cc1)NC(=O)/C=C/c1cccs1 [Compound 3112, (Z)-3-[4-(dimethylamino)phenyl]-N-propyl-2-[(E)-3-(thien-2-yl)acrylamidolacry]amide] |  |  |  | 11.6 ± 0.39 µM | 27.7 ± 3.7 µM | 66.5 ± 0.1 µM
25 | CCCNC(=O)/C(=C/c1ccc(O)c(OC)c1)NC(=O)C=Cc1ccccc1 [Compound 3212, (Z)-2-cinnamamido-3-(4-hydroxy-3-methoxyphenyl)-N-propylacrylamide] | > 100 µM | 6.32 ± 0.02 µM | 9.14 ± 0.23 µM |  |  | 
26 | CCCNC(=O)/C(=C/c1ccc(O)c(OC)c1)NC(=O)/C=C/c1ccc(Cl)cc1 [Compound 3312, (Z)-2-[(E)-3-(4-chlorophenyl)acrylamido]-3-(4-hydroxy-3-methoxyphenyl)-N-propylacrylamide] | 37.8 ± 1.8 µM | 6.1 ± 0.44 µM | 5.4 ± 0.34 µM |  |  | 
27 | CCCNC(=O)/C(=C/c1ccc(O)c(OC)c1)NC(=O)/C=C/c1ccc(OC)cc1 [Compound 3412, (Z)-3-(4-hydroxy-3-methoxyphenyl)-2-[(E)-3-(4-methoxyphenyl)acrylamido]-N-propylacrylamide] | 38.4 ± 2.1 µM | 18 ± 1.2 µM | 48.6 ± 0.4 µM |  |  | 
28 | CCCNC(=O)/C(=C/c1ccc(O)c(OC)c1)NC(=O)/C=C/c1ccc(C)cc1 [Compound 3512, (Z)-3-(4-hydroxy-3-methoxyphenyl)-N-propyl-2-[(E)-3-(p-tolyl)acrylamidolacry]amide] |  |  |  | 26.3 ± 1.3 µM | 20.9 ± 1.1 µM | 15.1 ± 0.67 µM
29 | CCCNC(=O)/C(=C/c1ccc(O)c(OC)c1)NC(=O)/C=C/c1cccs1 [Compound 3612, (Z)-3-(4-hydroxy-3-methoxyphenyl)-N-propyl-2-[(E)-3-(thien-2-yl)acrylamidolacry]amide] |  |  |  | 24.8 ± 1.4 µM | 28.3 ± 1.3 µM | 48.3 ± 1.9 µM
30 | CCCNC(=O)/C(=C/c1c[nH]c2ccccc12)NC(=O)/C=C/c1ccc(C)cc1 [Compound 4012, (Z)-3-(1H-indol-3-yl)-N-propyl-2-[(E)-3-(p-tolyl)acrylamidolacry]amide] |  |  |  | 3.39 ± 0.1 µM | 2.3 ± 0.08 µM | 3.12 ± 0.06 µM
31 | O=C/C=C/c1ccccc1 [tCA, trans-cinnamaldehyde, reference compound] | 12.4 ± 1.2 µM |  |  |  |  | 
